# Counter-ions that a name gives are not always drawn. Like-named read-outs stand apart in the source and are kept apart here.
# Legend:
# Assay type in all cases: physicochemical
# [1] = Kinetic solubility in water and four biological media at 37 °C; conditions: for S: Solubility / solubility at 1 h / solubility at 4 h / solubility at 24 h: about 10 mg/mL sample added; for S: Solubility: LOQ = 0.099 µg/mL; for solubility at 1 h / solubility at 4 h / solubility at 24 h: read-out: S: Solubility; for FC: change in appearance: solid by XRPD; for pH: supernatant
# Procedure: About 10 mg/mL of sample (on a free base basis) was added to various biological media. After shaking at 100 rpm at 37 °C (for 1/4/24 h), samples 01-05 were centrifuged, and the solids were collected for XRPD test, while the supernatant was used for detection and pH measurement.
# Table 9. Kinetic solubility of crystal form I in water and four biological media at 37 °C (mg/mL)
# [2] = Stability test, open conditions at 25 °C/60% RH and 40 °C/75% RH for 3 days; conditions: for Change in appearance / Change in crystal form / Purity: 3 days
# Procedure: Samples were separately taken from two crystal forms I and II of the monotriphenylacetate salt of the exemplary compound of formula (II) and left to stand in open conditions at 25 °C/60% RH and 40 °C/75% RH for 3 days.
# Table 4. Summary of stability study data
# [3] = Hygroscopicity test (dynamic vapor sorption, DVS)
# Excerpt: The DVS results of the crystal form I (FIG. 12A) show slow weight gains from 0 to 60% RH and 70% RH to 95% RH, and a rapid weight gain from 60% RH to 70% RH.
# [4] = Acceleration stability test at 40 °C and 75% humidity, one month
# Procedure: The commercially available amorphous form of rifabutin and the crystal forms V and VI of the present application were separately placed in a constant-temperature and constant-humidity incubator at 40 °C and 75% humidity for acceleration test. After one month, the change in purity was determined.
# [5] = Approximate solubility of the starting free base at room temperature; conditions: room temperature (about 25 °C)
# Procedure: The approximate solubility of the starting free base of the exemplary compound of formula (II) in 5 single solvents and 9 mixed solvents at room temperature (about 25 °C) was also tested. Table 1. Approximate solubility (mg/mL) of the starting free base at room temperature
smiles,measurement,setting,value
CO[C@H]1/C=C/O[C@@]2(C)Oc3c(C)c(O)c4c(c3C2=O)C2=NC3(CCN(CCn5c([N+](=O)[O-])cnc5C)CC3)NC2=C(NC(=O)/C(C)=C\C=C\[C@H](C)[C@H](O)[C@@H](C)[C@@H](O)[C@@H](C)[C@H](OC(C)=O)[C@@H]1C)C4=O [Crystal form I of triphenylacetate salt],S: Solubility,"[1]; Water, 1 h",<LOQ
same,S: Solubility,"[1]; Water, 4 h",<LOQ
same,S: Solubility,"[1]; Water, 24 h",<LOQ
same,solubility at 1 h,"[1]; fassgf, pH 1.6, FaSSGF (1.6), 1 h",1300 µg/mL
same,solubility at 4 h,"[1]; fassgf, pH 1.6, FaSSGF (1.6), 4 h",1600 µg/mL
same,solubility at 24 h,"[1]; fassgf, pH 1.6, FaSSGF (1.6), 24 h",~1600 µg/mL
same,solubility at 1 h,"[1]; fassif, pH 6.5, FaSSIF (6.5), 1 h",12 µg/mL
same,solubility at 4 h,"[1]; fassif, pH 6.5, FaSSIF (6.5), 4 h",5.7 µg/mL
same,solubility at 24 h,"[1]; fassif, pH 6.5, FaSSIF (6.5), 24 h",7.5 µg/mL
same,solubility at 1 h,"[1]; fessgf, pH 5, FeSSGF (5.0), 1 h",120 µg/mL
same,solubility at 4 h,"[1]; fessgf, pH 5, FeSSGF (5.0), 4 h",180 µg/mL
same,solubility at 24 h,"[1]; fessgf, pH 5, FeSSGF (5.0), 24 h",220 µg/mL
same,solubility at 1 h,"[1]; fessif, pH 5, FeSSIF (5.0), 1 h",120 µg/mL
same,solubility at 4 h,"[1]; fessif, pH 5, FeSSIF (5.0), 4 h",120 µg/mL
same,solubility at 24 h,"[1]; fessif, pH 5, FeSSIF (5.0), 24 h",140 µg/mL
same,FC: change in appearance,"[1]; FaSSGF (1.6), 1 h",No
same,FC: change in appearance,"[1]; FaSSGF (1.6), 4 h",No
same,FC: change in appearance,"[1]; FaSSGF (1.6), 24 h",No
same,FC: change in appearance,"[1]; FaSSIF (6.5), 1 h",No
same,FC: change in appearance,"[1]; FaSSIF (6.5), 4 h",No
same,FC: change in appearance,"[1]; FaSSIF (6.5), 24 h",No
same,FC: change in appearance,"[1]; FeSSGF (5.0), 1 h",No
same,FC: change in appearance,"[1]; FeSSGF (5.0), 4 h",No
same,FC: change in appearance,"[1]; FeSSGF (5.0), 24 h",No
same,FC: change in appearance,"[1]; FeSSIF (5.0), 1 h",No
same,FC: change in appearance,"[1]; FeSSIF (5.0), 4 h",No
same,FC: change in appearance,"[1]; FeSSIF (5.0), 24 h",No
same,FC: change in appearance,"[1]; Water, 1 h",No
same,FC: change in appearance,"[1]; Water, 4 h",No
same,FC: change in appearance,"[1]; Water, 24 h",No
same,pH,"[1]; FaSSGF (1.6), 1 h",1.55
same,pH,"[1]; FaSSGF (1.6), 4 h",1.57
same,pH,"[1]; FaSSGF (1.6), 24 h",1.54
same,pH,"[1]; FaSSIF (6.5), 1 h",6.37
same,pH,"[1]; FaSSIF (6.5), 4 h",6.37
same,pH,"[1]; FaSSIF (6.5), 24 h",6.40
same,pH,"[1]; FeSSGF (5.0), 1 h",5.03
same,pH,"[1]; FeSSGF (5.0), 4 h",5.07
same,pH,"[1]; FeSSGF (5.0), 24 h",5.07
same,pH,"[1]; FeSSIF (5.0), 1 h",4.85
same,pH,"[1]; FeSSIF (5.0), 4 h",4.84
same,pH,"[1]; FeSSIF (5.0), 24 h",4.84
same,pH,"[1]; Water, 1 h",4.45
same,pH,"[1]; Water, 4 h",4.44
same,pH,"[1]; Water, 24 h",4.62
same,Change in appearance,[2]; 25 °C/60% RH Open,No change
same,Change in crystal form,[2]; 25 °C/60% RH Open,No change
same,Purity,[2]; 25 °C/60% RH Open,98.09 Area%
same,Change in appearance,[2]; 40 °C/75% RH Open,No change
same,Change in crystal form,[2]; 40 °C/75% RH Open,No change
same,Purity,[2]; 40 °C/75% RH Open,98.22 Area%
same,Starting sample Purity,"[2]; starting sample, before storage",97.23 Area%
same,water absorption,"[3]; 25 °C/80% RH (relative to 0% RH), about 1 H2O",1.5%
same,hygroscopicity,"[3]; DVS, 25 °C/80% RH",slightly hygroscopic
same,change in appearance of crystal form before/after DVS evaluation (XRPD),[3]; before/after DVS,no change
"CO[C@H]1/C=C/O[C@@]2(C)Oc3c(C)c(O)c4c(c3C2=O)C2=NC3(CCN(CC(C)C)CC3)NC2=C(NC(=O)/C(C)=C\C=C\[C@H](C)[C@H](O)[C@@H](C)[C@@H](O)[C@@H](C)[C@H](OC(C)=O)[C@@H]1C)C4=O [amorphous product of rifabutin, rifabutin]",Purity,[4]; after one month at 40 °C and 75% humidity,95.54%
same,purity of the original sample,"[4]; original sample, before storage",95.9%
CO[C@H]1/C=C/O[C@@]2(C)Oc3c(C)c(O)c4c(c3C2=O)C2=NC3(CCN(CCn5c([N+](=O)[O-])cnc5C)CC3)NC2=C(NC(=O)/C(C)=C\C=C\[C@H](C)[C@H](O)[C@@H](C)[C@@H](O)[C@@H](C)[C@H](OC(C)=O)[C@@H]1C)C4=O [starting free base],solubility,[5]; 2-MeTHF,> 41400 µg/mL
same,solubility,[5]; 2-MeTHF:MTBE (1:1) v:v,> 42400 µg/mL
same,solubility,[5]; EtOAc,> 40800 µg/mL
same,solubility,[5]; EtOAc:MTBE (1:1) v:v,> 41400 µg/mL
same,solubility,[5]; IPA,> 39200 µg/mL
same,solubility,[5]; IPA:H2O (1:1) v:v,20500 to 41000 µg/mL
same,solubility,[5]; IPA:H2O (3:1) v:v,> 41200 µg/mL
same,solubility,[5]; IPA:H2O (5:1) v:v,> 41200 µg/mL
same,solubility,[5]; IPA:H2O (9:1) v:v,> 41400 µg/mL
same,solubility,[5]; IPA:H2O (19:1) v:v,> 42200 µg/mL
same,solubility,[5]; IPA:n-Heptane (1:1) v:v,20700 to 41400 µg/mL
same,solubility,[5]; MTBE,6700 to 20100 µg/mL
same,solubility,[5]; Toluene,> 41400 µg/mL
same,solubility,[5]; Toluene:MTBE (1:1) v:v,> 42400 µg/mL
